Laboratory results from PMC8706149 (International Journal of Molecular Sciences, 2021).
Converted amounts (≈) assume the structure as drawn. Where two headings read alike, the source gives them in different places. Marks after values point to notes of the source that are not given here. Bridge positions count the residues as written; N and C are the ends. Square brackets hold non-standard residues; d marks the D form. Peptide text beside a SMILES is read from it. * marks the point of attachment. X1 = CC[C@H](C)CCCCC(=O)*; Dab = NCC[C@H](N)C(=O)O

Experiments:
[1] = test system: Escherichia coli ATCC 25922; format: cell-based; settings: positive control antibiotic; Nutrient Broth 0.5x, overnight 37°C
Description: (§1) All the labeled peptide after purification were lyophilized and dissolved in water. Purity was veri-fi e d by RP-HPLC on C18 column . Pepti de i dentity was assessed by mass spectrometry anal yses (Supplementary Methods, section S4; Table S1).
(§2) S6. Antimicrobial activity assay
(§3) MIC (Minimum Inhibitory Concentration) analyses were performed by broth microdilution method for antimicrobial peptides previously described wi th mi nor modi ficati ons. In detai l s, assays were carried out in Nutrient Broth 0.5x (Difco, Detroit, MI, US A ) usi ng st e r i le 96-well polypropylene mi-croti ter pl ates (cat. 3879, C ostar C orp., C ambri dge, MA , US A ). Bacterial strains were grown in Luria-Bertani (LB) medium overnight at 37°C and then diluted in Nutrient Broth at a final concentration of ~5x10^5 CFU/mL per well. Twofold serial dilutions of peptides were carried out in the test wells […]
(§4) Plates were incubated overnight at 37°C. MIC value was taken as the lowest concentration at which growth was inhibited. Three independent experiments we r e performed for each MIC value. […] MIC values were measured on Gram-negative ( E scherichia coli ATCC 25922) and Gram-po si t i ve st r ains (Sta phyl o co ccus a ure us ATCC 6538P and Bacillus globigii TNO BMO13) . […]

[2] = Photostability under constant excitation; format: physicochemical; settings: 60 min constant excitation at maximum absorption (Figure S3)
Excerpt: As comparative control, we used the very photostable fluorophore PyMPO [33] by treating PyMPO-(C)GKY20 in the same conditions.

[3] = test system: Bacillus globigii TNO BMO13; test: MIC, broth microdilution; format: cell-based; settings: Bacillus subtilis, TNOBMO13, read-out: MIC (µg/mL) Bacillus globigii TNO BMO13
Description: as §1, §2, §3, §4

[4] = cited from earlier work; for pKa of the phenolic group of luciferin: ground state
Excerpt: Excited states are indicated by an asterisk. (C) Condensation reaction between 6-substituted 2-cyanobenzothiazoles and cysteine (free or as N-terminal residue of a peptide). R1 and R2 can be a wide variety of alkyl and acyl groups.

## CC[C@H](C)CCCCC(=O)N[C@@H](CCN)C(=O)N[C@H](C(=O)N[C@@H](CCN)C(=O)N[C@H]1CCNC(=O)[C@H]([C@@H](C)O)NC(=O)[C@H](CCN)NC(=O)[C@H](CCN)NC(=O)[C@H](CC(C)C)NC(=O)[C@@H](Cc2ccccc2)NC(=O)[C@H](CCN)NC1=O)[C@@H](C)O [Polymyxin B, polymyxin B] (X1-[Dab]T[Dab][Dab][Dab][dF]L[Dab][Dab]T; lactam 4-C (inferred); N-terminus assumed)
[1]
  MIC (µg/mL) Escherichia coli 25922 ATCC: 0.5 µg/mL (≈ 0.415 µM)

## 1-[2-(maleimido)ethyl]-4-[5-(4-methoxyphenyl)-2-oxazolyl]pyridinium-labeled GKY20 [PyMPO-(C)GKY20]
[2]
  loss of initial fluorescence: 43%

## CN[C@H](CC(C)C)C(=O)N[C@H]1C(=O)N[C@@H](CC(N)=O)C(=O)N[C@H]2C(=O)N[C@H]3C(=O)N[C@H](C(=O)N[C@H](C(=O)O)c4cc(O)cc(O)c4-c4cc3ccc4O)[C@H](O)c3ccc(c(Cl)c3)Oc3cc2cc(c3O[C@@H]2O[C@H](CO)[C@@H](O)[C@H](O)[C@H]2O[C@H]2C[C@](C)(N)[C@H](O)[C@H](C)O2)Oc2ccc(cc2Cl)[C@H]1O [Vancomycin, vancomycin]
[3]
  MIC: 2 µg/mL (≈ 1.38 µM)

## O=C(O)[C@H]1CSC(c2nc3ccc(O)cc3s2)=N1 [Free Luc, luciferin]
[4]
  pKa of the phenolic group of luciferin: 8.70 ^b
[4]; listed as LUC-OH
  pKa of the phenolic group of luciferin: 8.7
[4]; listed as Luc
  pKa of the phenolic group of luciferin: ≈ 8.7
[4]; photoacid, excited state
  pKa of light-induced dissociation (excited state) of luciferin: < 1
